Test systems include SK-MEL-28; Hs-578T; SK-OV-3; SK-MEL-5; NCI-H226; 786-0; HCT-116; SNB-19; SF-268; HOP-62; OVCAR-8; NCI/ADR-RES; BT-549; ACHN; UACC-257; MOLT-4; SR; IGROV-1; T47D.
Common to all, as to experiment: inhibition of tumour cell growth, NCI panel, 48 h

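Protocol summary: plate cells (96-well), add compound at 5 concentrations, incubate 48 h, interpolate endpoints linearly. At the GI50, growth is halved.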 Calls of active or inactive are those of the source. Cut-off read from the data, not from the text of the source: active = GI50 up to about 1.1 µM and inactive = higher.

`OC1CCN2Cc3ccccc3N=C12` (stereo not given): the GI50 in the experiment with SK-MEL-28, with Hs-578T, in the experiment with SK-OV-3, with SK-MEL-5, with NCI-H226 and in the experiment with 786-0 was > 100 µM (inactive) throughout. Also, the GI50 with HCT-116, in the experiment with SNB-19, in the experiment with SF-268, in the experiment with HOP-62, in the experiment on OVCAR-8 and with NCI/ADR-RES was > 100 µM (inactive) throughout. Moreover, the GI50 with BT-549, in the experiment with ACHN, in the experiment with UACC-257 and with MOLT-4 was > 100 µM (inactive) throughout.

As for `COc1cc(OC2OC(COC(=O)c3cc(O)c(O)c(O)c3)C(O)C(O)C2O)ccc1O` (stereo not given), the GI50 with SK-MEL-28, with Hs-578T, in the experiment on SR, in the experiment with SK-MEL-5, in the experiment with NCI-H226 and in the experiment with 786-0 was > 100 µM (inactive) in each case. Further, the GI50 with HCT-116 is > 100 µM (inactive); with SNB-19 it was > 100 µM (inactive); with SF-268 it was 82 µM (inactive); in the experiment on HOP-62 it was > 100 µM (inactive); with IGROV-1 it was > 100 µM (inactive); with OVCAR-8, 89.9 µM (inactive). In addition, the GI50 in the experiment on NCI/ADR-RES was > 100 µM (inactive); in the experiment with BT-549 it was 47.3 µM (inactive); in the experiment with ACHN, 55.1 µM (inactive); in the experiment with UACC-257, > 100 µM (inactive); in the experiment on MOLT-4 it was 53.1 µM (inactive).

In the case of `NS(=O)(=O)c1cccc(NC(=S)NC(=O)Nc2ccc(Cl)c(Cl)c2)c1`, the GI50 is 20.4 µM (inactive) in the experiment with SK-MEL-28; 17 µM (inactive) in the experiment on Hs-578T; 21.4 µM (inactive) with SK-OV-3; 17.1 µM (inactive) in the experiment with SK-MEL-5; 15.9 µM (inactive) in the experiment with 786-0; 17.1 µM (inactive) in the experiment with HCT-116. The GI50 in the experiment on SNB-19 was 21.2 µM (inactive); in the experiment on SF-268, 22.5 µM (inactive); in the experiment with HOP-62, 15.5 µM (inactive); in the experiment on IGROV-1 it was 20 µM (inactive); with OVCAR-8, 17.3 µM (inactive); in the experiment with NCI/ADR-RES, 15.9 µM (inactive). The GI50 in the experiment with BT-549 is 16.1 µM (inactive); with T47D it was 18.1 µM (inactive); in the experiment on ACHN it was 19.5 µM (inactive); with UACC-257, 27.4 µM (inactive); in the experiment on MOLT-4 it was 12 µM (inactive).

As to `CC(=O)c1c(O)c(C)c(O)c(Cc2c(O)c3c(c(C(=O)/C=C/c4ccccc4)c2O)OC(C)(C)C=C3)c1O` [ROTTLERIN], the GI50 with SK-MEL-28 is 2.86 µM (inactive); in the experiment with Hs-578T, 3.65 µM (inactive); in the experiment with SK-OV-3 it was 4.04 µM (inactive); in the experiment with SK-MEL-5, 1.87 µM (inactive); with NCI-H226, 3.45 µM (inactive); in the experiment with 786-0, 2.85 µM (inactive). Further, the GI50 with HCT-116 was 1.82 µM (inactive); in the experiment on SNB-19, 2.34 µM (inactive); in the experiment on SF-268, 3.61 µM (inactive); in the experiment with IGROV-1, 3.1 µM (inactive); in the experiment with OVCAR-8, 3.08 µM (inactive); in the experiment with NCI/ADR-RES it was 2.53 µM (inactive). In addition, the GI50 is 2.51 µM (inactive) in the experiment on BT-549; 1.85 µM (inactive) with T47D; 3.51 µM (inactive) in the experiment with ACHN; 2.21 µM (inactive) in the experiment on UACC-257; 1.89 µM (inactive) in the experiment with MOLT-4.

Turning to `CC(C)=CCC[C@]1(C)C=Cc2c(O)c3c(c(CC=C(C)C)c2O1)O[C@]12C(=C[C@@H]4CC1C(C)(C)O[C@@]2(C/C=C(/C)C(=O)O)C4=O)C3=O`, the GI50 in the experiment on SK-MEL-28 is 1.28 µM (inactive); in the experiment with Hs-578T, 0.673 µM (active); with SR it was 0.317 µM (active); in the experiment with SK-OV-3, 3.01 µM (inactive); with NCI-H226, 0.774 µM (active); in the experiment with 786-0 it was 0.488 µM (active). The GI50 is 0.256 µM (active) in the experiment with HCT-116; 2.12 µM (inactive) in the experiment on SNB-19; 1.45 µM (inactive) in the experiment with SF-268; 1.69 µM (inactive) in the experiment with HOP-62; 1.43 µM (inactive) with IGROV-1; 0.643 µM (active) in the experiment on OVCAR-8. The GI50 in the experiment with NCI/ADR-RES is 1.92 µM (inactive); in the experiment with BT-549 it was 1.91 µM (inactive); in the experiment on ACHN, 0.419 µM (active); with UACC-257 it was 2.31 µM (inactive); in the experiment with MOLT-4, 0.305 µM (active).

Consider `CC1=C2O[C@]3(O)C=C2C(=C(O)C1=O)[C@@H]1O[C@H](CC[C@H](C)/C=C(\C)C[C@@H](C)C[C@@H]3C)[C@H](C)[C@H](O)[C@H]1C` [KENDOMYCIN], for which the GI50 is 0.229 µM (active) in the experiment with SK-MEL-28; 0.289 µM (active) in the experiment on Hs-578T; 0.135 µM (active) with SR; 1.12 µM (active) with SK-OV-3; 0.498 µM (active) in the experiment on SK-MEL-5; 1.12 µM (active) with NCI-H226. Besides, the GI50 in the experiment with 786-0 is 0.149 µM (active); in the experiment on HCT-116 it was 0.176 µM (active); with SNB-19 it was 0.977 µM (active); in the experiment on SF-268, 0.354 µM (active); with HOP-62, 0.356 µM (active); with IGROV-1 it was 0.163 µM (active). In addition, the GI50 in the experiment on NCI/ADR-RES is 0.311 µM (active); in the experiment on BT-549, 0.331 µM (active); in the experiment with ACHN, 0.132 µM (active); with UACC-257 it was 0.239 µM (active); with MOLT-4 it was 0.097 µM (active).

`O=C(/C=C/c1c(O)nc2ccccc2c1O)CC(=O)C(=O)Nc1cccc(O)c1`: the GI50 with SK-MEL-28, with Hs-578T, with SK-OV-3, in the experiment with SK-MEL-5, in the experiment on NCI-H226 and with 786-0 was > 100 µM (inactive) in each case. In addition, the GI50 in the experiment on HCT-116, in the experiment on SNB-19, in the experiment with SF-268, in the experiment with IGROV-1, with OVCAR-8 and with NCI/ADR-RES was > 100 µM (inactive) in each case. The GI50 in the experiment with BT-549, in the experiment with T47D, in the experiment with ACHN, with UACC-257 and in the experiment with MOLT-4 was > 100 µM (inactive) in each case.

In the case of `C[N+](C)(C)CC(=O)N/N=C(\Cc1nc2ccc([N+](=O)[O-])cc2nc1O)C(=O)Nc1nc2ccc([N+](=O)[O-])cc2s1`, the GI50 in the experiment on SK-MEL-28 is > 100 µM (inactive); in the experiment on SR, 44.1 µM (inactive); in the experiment with SK-OV-3, 34 µM (inactive); with SK-MEL-5 it was 37.3 µM (inactive); in the experiment on NCI-H226 it was 25.4 µM (inactive); with 786-0, 93.8 µM (inactive). Moreover, the GI50 is 51.9 µM (inactive) in the experiment on HCT-116; 34 µM (inactive) in the experiment with SF-268; 57.9 µM (inactive) with HOP-62; 23.5 µM (inactive) in the experiment with IGROV-1; 74.3 µM (inactive) with OVCAR-8; 63.4 µM (inactive) in the experiment on NCI/ADR-RES. Moreover, the GI50 with BT-549 was 29.3 µM (inactive); in the experiment with T47D, 21.9 µM (inactive); in the experiment with ACHN, 52.2 µM (inactive); with UACC-257, > 100 µM (inactive); in the experiment on MOLT-4, 49.2 µM (inactive).

Values taken from ChEMBL document CHEMBL1201862, “PubChem BioAssay data set” (2004).
